Paper PMC7407272, “Induction of Lysosome Membrane Permeabilization as a Therapeutic Strategy to Target Pancreatic Cancer Stem Cells” (Cancers, 2020)

Assays:
Pharmacokinetic study = type: in vivo; conditions: BALB/c mice
Protocol: Female BABL/c mice, 10 weeks old were used (n = 3 per time point). Compound 2 was formulated in 0.9% NaCl solution for both oral and intravenous (i.v.) injections. Plasma samples were collected following a single i.v. or oral administration of 8 mg/kg at 0.08, 0.16, 0.25, 0.5, 1, 4, 8 and 24 h. The extraction of Cpd 2 from plasma was achieved by solid phase extraction followed by high performance liquid chromatography/tandem mass spectrometry (Agilent 1100, Applied Biosystems API2000) analysis. The amount of inhibitor and the internal standard in each mouse plasma sample were quantified based on calibration curves generated using standards of known concentrations of compound. This assay method was sufficiently accurate for the quantification of Cpd 2 with a limit of detection (LOD) and a low limit of quantification (LLOQ) of 5 ng/mL. Pharmacokinetic parameters were estimated using WinNonlin Version 5.2 software (Pharsight Corp., Mountain View, CA, USA), by fitting both the experimental i.v and oral data to a bicompartimental model.

ACVR1B = target: T1, ACVR1B (Homo sapiens, UniProt P36896); assay: KINOMEscan; type: binding; conditions: read-out: % Ctrl
T1 construct: purchased DiscoveRx KINOMEscan

HCK = target: T2, HCK (Homo sapiens, UniProt P08631); assay: KINOMEscan; type: binding; conditions: read-out: % Ctrl
T2 construct: purchased DiscoveRx KINOMEscan

HIPK2 = target: T3, HIPK2 (Homo sapiens, UniProt Q9H2X6); assay: KINOMEscan; type: binding; conditions: read-out: % Ctrl
T3 construct: purchased DiscoveRx KINOMEscan

PKAC-alpha = target: T4, PKAC-alpha (Homo sapiens, UniProt P17612); assay: KINOMEscan; type: binding; conditions: read-out: % Ctrl
T4 construct: purchased DiscoveRx KINOMEscan

ASK2 = target: T5, ASK2 (Homo sapiens, UniProt O95382); assay: KINOMEscan; type: binding; conditions: read-out: % Ctrl
T5 construct: purchased DiscoveRx KINOMEscan

ICK = target: T6, ICK (Homo sapiens, UniProt Q9UPZ9); assay: KINOMEscan; type: binding; conditions: read-out: % Ctrl
T6 construct: purchased DiscoveRx KINOMEscan

BRAF = target: T7, BRAF (Homo sapiens, UniProt P15056); assay: KINOMEscan; type: binding; conditions: read-out: % Ctrl
T7 construct: purchased DiscoveRx KINOMEscan

IRAK1 = target: T8, IRAK1 (Homo sapiens, UniProt P51617); assay: KINOMEscan; type: binding; conditions: read-out: % Ctrl
T8 construct: purchased DiscoveRx KINOMEscan

PRKD3 = target: T9, PRKD3 (Homo sapiens, UniProt O94806); assay: KINOMEscan; type: binding; conditions: read-out: % Ctrl
T9 construct: purchased DiscoveRx KINOMEscan

BUB1 = target: T10, BUB1 (Homo sapiens, UniProt O43683); assay: KINOMEscan; type: binding; conditions: read-out: % Ctrl
T10 construct: purchased DiscoveRx KINOMEscan

JAK3(JH1D.-cat.) = target: T11, JAK3(JH1D.-cat.) (Homo sapiens, UniProt P52333); assay: KINOMEscan; type: binding; conditions: read-out: % Ctrl
T11 construct: JAK3(JH1D.-cat.); purchased DiscoveRx KINOMEscan

JNK3 = target: T12, JNK3 (Homo sapiens, UniProt P53779); assay: KINOMEscan; type: binding; conditions: read-out: % Ctrl
T12 construct: purchased DiscoveRx KINOMEscan

RET = target: T13, RET (Homo sapiens, UniProt P07949); assay: KINOMEscan; type: binding; conditions: read-out: % Ctrl
T13 construct: purchased DiscoveRx KINOMEscan

RET(V804M) = target: T14, RET(V804M) (Homo sapiens, UniProt P07949, V804M); assay: KINOMEscan; type: binding; conditions: read-out: % Ctrl
T14 construct: purchased DiscoveRx KINOMEscan

RIPK5 = target: T15, RIPK5 (Homo sapiens, UniProt Q6XUX3); assay: KINOMEscan; type: binding; conditions: read-out: % Ctrl
T15 construct: purchased DiscoveRx KINOMEscan

CDK4-cyclinD3 = target: T16, CDK4-cyclinD3 (Homo sapiens, UniProt P11802); assay: KINOMEscan; type: binding; conditions: read-out: % Ctrl
T16 construct: purchased DiscoveRx KINOMEscan

RPS6KA4(KD2-C-t.) = target: T17, RPS6KA4(KD2-C-t.) (Homo sapiens, UniProt O75676); assay: KINOMEscan; type: binding; conditions: read-out: % Ctrl
T17 construct: RPS6KA4(KD2-C-t.); purchased DiscoveRx KINOMEscan

LZK = target: T18, LZK (Homo sapiens, UniProt O43283); assay: KINOMEscan; type: binding; conditions: read-out: % Ctrl
T18 construct: purchased DiscoveRx KINOMEscan

RSK1(KD2-C-t.) = target: T19, RSK1(KD2-C-t.) (Homo sapiens, UniProt Q15418); assay: KINOMEscan; type: binding; conditions: read-out: % Ctrl
T19 construct: RSK1(KD2-C-t.); purchased DiscoveRx KINOMEscan

CDKL5 = target: T20, CDKL5 (Homo sapiens, UniProt O76039); assay: KINOMEscan; type: binding; conditions: read-out: % Ctrl
T20 construct: purchased DiscoveRx KINOMEscan

CHEK1 = target: T21, CHEK1 (Homo sapiens, UniProt O14757); assay: KINOMEscan; type: binding; conditions: read-out: % Ctrl
T21 construct: purchased DiscoveRx KINOMEscan

MARK1 = target: T22, MARK1 (Homo sapiens, UniProt Q9P0L2); assay: KINOMEscan; type: binding; conditions: read-out: % Ctrl
T22 construct: purchased DiscoveRx KINOMEscan

CSNK1A1L = target: T23, CSNK1A1L (Homo sapiens, UniProt Q8N752); assay: KINOMEscan; type: binding; conditions: read-out: % Ctrl
T23 construct: purchased DiscoveRx KINOMEscan

MARK4 = target: T24, MARK4 (Homo sapiens, UniProt Q96L34); assay: KINOMEscan; type: binding; conditions: read-out: % Ctrl
T24 construct: purchased DiscoveRx KINOMEscan

CSNK1E = target: T25, CSNK1E (Homo sapiens, UniProt P49674); assay: KINOMEscan; type: binding; conditions: read-out: % Ctrl
T25 construct: purchased DiscoveRx KINOMEscan

MEK1 = target: T26, MEK1 (Homo sapiens, UniProt Q02750); assay: KINOMEscan; type: binding; conditions: read-out: % Ctrl
T26 construct: purchased DiscoveRx KINOMEscan

MERTK = target: T27, MERTK (Homo sapiens, UniProt Q12866); assay: KINOMEscan; type: binding; conditions: read-out: % Ctrl
T27 construct: purchased DiscoveRx KINOMEscan

EGFR(G719C) = target: T28, EGFR(G719C) (Homo sapiens, UniProt P00533, G719C); assay: KINOMEscan; type: binding; conditions: read-out: % Ctrl
T28 construct: purchased DiscoveRx KINOMEscan

EGFR(T790M) = target: T29, EGFR(T790M) (Homo sapiens, UniProt P00533, T790M); assay: KINOMEscan; type: binding; conditions: read-out: % Ctrl
T29 construct: purchased DiscoveRx KINOMEscan

EPHA8 = target: T30, EPHA8 (Homo sapiens, UniProt P29322); assay: KINOMEscan; type: binding; conditions: read-out: % Ctrl
T30 construct: purchased DiscoveRx KINOMEscan

NEK7 = target: T31, NEK7 (Homo sapiens, UniProt Q8TDX7); assay: KINOMEscan; type: binding; conditions: read-out: % Ctrl
T31 construct: purchased DiscoveRx KINOMEscan

NEK9 = target: T32, NEK9 (Homo sapiens, UniProt Q8TD19); assay: KINOMEscan; type: binding; conditions: read-out: % Ctrl
T32 construct: purchased DiscoveRx KINOMEscan

EPHB2 = target: T33, EPHB2 (Homo sapiens, UniProt P29323); assay: KINOMEscan; type: binding; conditions: read-out: % Ctrl
T33 construct: purchased DiscoveRx KINOMEscan

EPHB4 = target: T34, EPHB4 (Homo sapiens, UniProt P54760); assay: KINOMEscan; type: binding; conditions: read-out: % Ctrl
T34 construct: purchased DiscoveRx KINOMEscan

EPHB6 = target: T35, EPHB6 (Homo sapiens, UniProt O15197); assay: KINOMEscan; type: binding; conditions: read-out: % Ctrl
T35 construct: purchased DiscoveRx KINOMEscan

PAK2 = target: T36, PAK2 (Homo sapiens, UniProt Q13177); assay: KINOMEscan; type: binding; conditions: read-out: % Ctrl
T36 construct: purchased DiscoveRx KINOMEscan
T36 sequence (Q13177 whole entry): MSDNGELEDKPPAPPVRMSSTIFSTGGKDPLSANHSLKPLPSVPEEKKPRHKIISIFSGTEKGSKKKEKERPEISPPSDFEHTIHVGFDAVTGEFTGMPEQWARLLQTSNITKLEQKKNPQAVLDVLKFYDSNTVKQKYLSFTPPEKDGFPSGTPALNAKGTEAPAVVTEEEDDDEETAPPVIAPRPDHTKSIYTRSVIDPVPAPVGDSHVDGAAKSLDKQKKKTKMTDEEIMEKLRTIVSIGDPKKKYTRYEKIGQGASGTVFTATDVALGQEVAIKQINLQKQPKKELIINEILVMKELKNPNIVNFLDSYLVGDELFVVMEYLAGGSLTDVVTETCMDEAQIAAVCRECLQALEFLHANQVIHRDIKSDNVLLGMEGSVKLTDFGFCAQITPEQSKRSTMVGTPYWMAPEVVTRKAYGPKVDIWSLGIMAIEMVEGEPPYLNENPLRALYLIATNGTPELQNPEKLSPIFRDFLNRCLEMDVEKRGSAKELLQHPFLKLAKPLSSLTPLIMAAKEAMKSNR

T33 sequence (P29323 19-1055): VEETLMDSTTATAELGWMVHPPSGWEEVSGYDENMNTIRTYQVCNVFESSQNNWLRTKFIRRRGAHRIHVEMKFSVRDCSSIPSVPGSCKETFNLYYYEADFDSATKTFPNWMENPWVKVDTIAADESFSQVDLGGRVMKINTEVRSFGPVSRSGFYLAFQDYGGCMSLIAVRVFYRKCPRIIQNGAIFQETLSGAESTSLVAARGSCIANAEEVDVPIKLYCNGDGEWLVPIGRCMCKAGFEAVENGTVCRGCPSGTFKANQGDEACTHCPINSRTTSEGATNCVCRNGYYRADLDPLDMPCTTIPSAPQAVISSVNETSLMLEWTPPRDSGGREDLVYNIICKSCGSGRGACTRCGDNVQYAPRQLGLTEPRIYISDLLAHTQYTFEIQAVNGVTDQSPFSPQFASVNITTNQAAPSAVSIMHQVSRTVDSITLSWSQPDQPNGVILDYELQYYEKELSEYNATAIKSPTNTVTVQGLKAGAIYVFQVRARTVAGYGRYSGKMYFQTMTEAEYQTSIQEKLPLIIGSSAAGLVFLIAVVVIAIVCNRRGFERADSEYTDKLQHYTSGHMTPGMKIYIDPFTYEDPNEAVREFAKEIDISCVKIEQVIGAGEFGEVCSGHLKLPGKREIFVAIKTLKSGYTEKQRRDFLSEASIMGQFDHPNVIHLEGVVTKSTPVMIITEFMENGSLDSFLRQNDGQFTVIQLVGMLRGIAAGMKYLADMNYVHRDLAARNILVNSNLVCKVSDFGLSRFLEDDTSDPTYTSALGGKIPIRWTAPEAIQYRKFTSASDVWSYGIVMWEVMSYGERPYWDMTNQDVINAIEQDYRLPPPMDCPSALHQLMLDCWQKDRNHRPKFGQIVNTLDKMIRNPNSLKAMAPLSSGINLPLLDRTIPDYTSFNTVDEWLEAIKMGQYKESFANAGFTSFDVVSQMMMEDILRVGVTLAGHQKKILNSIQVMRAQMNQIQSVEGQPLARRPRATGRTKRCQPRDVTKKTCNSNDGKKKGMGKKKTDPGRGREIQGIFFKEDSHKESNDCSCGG
T28 sequence (P00533 25-1210 G719C): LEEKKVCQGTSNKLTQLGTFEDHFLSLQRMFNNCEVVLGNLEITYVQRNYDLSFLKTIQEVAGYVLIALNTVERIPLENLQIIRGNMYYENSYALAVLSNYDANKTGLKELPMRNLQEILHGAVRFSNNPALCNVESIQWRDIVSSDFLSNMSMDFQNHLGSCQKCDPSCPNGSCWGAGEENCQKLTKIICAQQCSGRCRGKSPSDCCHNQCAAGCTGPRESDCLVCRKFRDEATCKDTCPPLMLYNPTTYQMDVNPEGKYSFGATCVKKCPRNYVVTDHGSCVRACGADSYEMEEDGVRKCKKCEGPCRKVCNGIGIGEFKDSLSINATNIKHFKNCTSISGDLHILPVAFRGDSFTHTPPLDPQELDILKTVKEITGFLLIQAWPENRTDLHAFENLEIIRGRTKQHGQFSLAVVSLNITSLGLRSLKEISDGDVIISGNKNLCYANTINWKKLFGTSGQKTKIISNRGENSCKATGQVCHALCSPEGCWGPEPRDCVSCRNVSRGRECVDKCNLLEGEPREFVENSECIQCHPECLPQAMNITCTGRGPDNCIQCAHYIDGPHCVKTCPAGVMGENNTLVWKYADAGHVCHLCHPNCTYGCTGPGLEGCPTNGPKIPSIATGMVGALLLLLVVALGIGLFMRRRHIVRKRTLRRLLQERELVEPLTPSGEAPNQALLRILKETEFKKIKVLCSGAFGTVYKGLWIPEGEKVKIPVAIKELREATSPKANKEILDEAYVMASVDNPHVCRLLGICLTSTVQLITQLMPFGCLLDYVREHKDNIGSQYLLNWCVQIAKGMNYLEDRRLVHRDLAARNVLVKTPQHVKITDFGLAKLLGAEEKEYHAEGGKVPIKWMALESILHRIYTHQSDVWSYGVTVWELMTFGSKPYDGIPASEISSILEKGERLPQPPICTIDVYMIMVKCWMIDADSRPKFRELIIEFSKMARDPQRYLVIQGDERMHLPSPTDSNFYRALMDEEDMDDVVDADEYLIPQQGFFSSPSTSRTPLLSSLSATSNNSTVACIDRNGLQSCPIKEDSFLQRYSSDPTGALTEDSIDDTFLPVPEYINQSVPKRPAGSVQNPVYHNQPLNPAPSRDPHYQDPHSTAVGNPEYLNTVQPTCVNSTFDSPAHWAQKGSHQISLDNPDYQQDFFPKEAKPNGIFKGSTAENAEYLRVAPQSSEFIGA
T27 sequence (Q12866 21-999): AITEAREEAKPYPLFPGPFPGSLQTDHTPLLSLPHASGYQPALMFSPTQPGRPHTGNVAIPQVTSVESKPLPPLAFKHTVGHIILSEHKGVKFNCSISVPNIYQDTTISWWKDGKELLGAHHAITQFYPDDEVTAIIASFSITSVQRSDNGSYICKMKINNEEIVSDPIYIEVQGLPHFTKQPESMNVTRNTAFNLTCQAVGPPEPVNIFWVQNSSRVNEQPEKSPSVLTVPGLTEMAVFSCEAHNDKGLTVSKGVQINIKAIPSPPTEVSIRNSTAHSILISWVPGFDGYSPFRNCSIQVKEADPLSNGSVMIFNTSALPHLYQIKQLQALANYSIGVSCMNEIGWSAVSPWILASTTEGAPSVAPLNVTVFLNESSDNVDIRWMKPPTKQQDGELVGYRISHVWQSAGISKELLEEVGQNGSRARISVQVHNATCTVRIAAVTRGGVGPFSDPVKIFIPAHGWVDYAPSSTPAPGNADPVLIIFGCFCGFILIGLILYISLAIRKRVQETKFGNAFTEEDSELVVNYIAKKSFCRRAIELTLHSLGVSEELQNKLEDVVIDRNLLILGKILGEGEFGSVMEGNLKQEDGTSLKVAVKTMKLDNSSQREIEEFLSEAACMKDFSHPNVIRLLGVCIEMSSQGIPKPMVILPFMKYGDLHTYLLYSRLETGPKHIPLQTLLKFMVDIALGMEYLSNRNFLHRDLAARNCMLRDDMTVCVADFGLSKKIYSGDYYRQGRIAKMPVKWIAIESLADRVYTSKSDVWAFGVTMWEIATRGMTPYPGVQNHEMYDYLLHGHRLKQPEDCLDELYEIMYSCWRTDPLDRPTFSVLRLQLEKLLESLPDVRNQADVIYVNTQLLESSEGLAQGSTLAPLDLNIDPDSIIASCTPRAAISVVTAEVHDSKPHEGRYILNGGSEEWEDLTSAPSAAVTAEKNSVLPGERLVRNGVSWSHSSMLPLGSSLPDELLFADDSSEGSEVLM
T3 sequence (Q9H2X6 whole entry): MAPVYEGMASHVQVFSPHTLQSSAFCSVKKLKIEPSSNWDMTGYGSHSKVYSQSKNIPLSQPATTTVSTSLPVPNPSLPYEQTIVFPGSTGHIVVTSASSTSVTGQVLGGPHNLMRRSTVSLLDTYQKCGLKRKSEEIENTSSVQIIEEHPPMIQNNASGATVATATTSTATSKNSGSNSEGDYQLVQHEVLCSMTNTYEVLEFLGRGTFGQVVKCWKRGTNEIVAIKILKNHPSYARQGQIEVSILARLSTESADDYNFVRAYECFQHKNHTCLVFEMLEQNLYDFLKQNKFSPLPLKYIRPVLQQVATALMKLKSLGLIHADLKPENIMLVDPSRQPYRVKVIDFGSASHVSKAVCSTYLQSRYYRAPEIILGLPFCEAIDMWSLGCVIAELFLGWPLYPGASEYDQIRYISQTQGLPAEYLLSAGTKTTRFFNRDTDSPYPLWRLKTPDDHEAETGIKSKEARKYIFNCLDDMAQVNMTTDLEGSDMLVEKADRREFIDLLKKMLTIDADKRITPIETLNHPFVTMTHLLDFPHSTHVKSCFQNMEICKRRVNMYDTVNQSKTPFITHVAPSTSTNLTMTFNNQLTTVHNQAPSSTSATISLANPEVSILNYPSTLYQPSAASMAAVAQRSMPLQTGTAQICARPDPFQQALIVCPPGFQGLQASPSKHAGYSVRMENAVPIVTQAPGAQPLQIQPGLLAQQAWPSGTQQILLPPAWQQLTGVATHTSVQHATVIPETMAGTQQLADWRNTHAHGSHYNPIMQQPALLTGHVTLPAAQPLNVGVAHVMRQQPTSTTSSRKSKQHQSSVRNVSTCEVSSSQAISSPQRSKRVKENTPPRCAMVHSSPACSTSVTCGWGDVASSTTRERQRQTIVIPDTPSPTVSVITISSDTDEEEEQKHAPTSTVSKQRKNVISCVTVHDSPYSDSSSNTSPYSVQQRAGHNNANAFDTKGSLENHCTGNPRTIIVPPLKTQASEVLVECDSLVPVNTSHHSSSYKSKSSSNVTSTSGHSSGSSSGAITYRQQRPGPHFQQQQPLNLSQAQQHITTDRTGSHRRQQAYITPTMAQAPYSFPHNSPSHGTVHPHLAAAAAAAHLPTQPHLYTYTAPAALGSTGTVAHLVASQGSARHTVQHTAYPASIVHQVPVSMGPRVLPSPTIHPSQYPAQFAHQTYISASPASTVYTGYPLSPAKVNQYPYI

With CN1CCC(CNc2ccc3ncc(C(=O)Nc4cccc(OC(F)(F)F)c4)n3n2)CC1 [Cpd 2] the levels in plasma (Pharmacokinetic study; after intravenous administration) was “low levels in plasma”, the clearance (Pharmacokinetic study; intravenous administration) was greater than 100 % hepatic blood flow and the remaining binding at 1 µM (ACVR1B) was 97%. It also gave a remaining binding at 1 µM (HCK) of 96%, a remaining binding at 1 µM (HIPK2) of 68% and a remaining binding at 1 µM (PKAC-alpha) of 99%. For the same molecule, the remaining binding at 1 µM (ASK2) was 99%, the remaining binding at 1 µM (ICK) was 93% and the remaining binding at 1 µM (BRAF) was 100%. For the same molecule, the remaining binding at 1 µM (IRAK1) was 100%, the remaining binding at 1 µM (PRKD3) was 92% and the remaining binding at 1 µM (BUB1) was 62%. It also gave a remaining binding at 1 µM (JAK3(JH1D.-cat.)) of 100%, a remaining binding at 1 µM (JNK3) of 100% and a remaining binding at 1 µM (RET) of 88%. It also gave a remaining binding at 1 µM (RET(V804M)) of 97%, a remaining binding at 1 µM (RIPK5) of 84% and a remaining binding at 1 µM (CDK4-cyclinD3) of 100%. It also gave a remaining binding at 1 µM (RPS6KA4(KD2-C-t.)) of 100%, a remaining binding at 1 µM (LZK) of 92% and a remaining binding at 1 µM (RSK1(KD2-C-t.)) of 89%. For the same molecule, the remaining binding at 1 µM (CDKL5) was 100%, the remaining binding at 1 µM (CHEK1) was 86% and the remaining binding at 1 µM (MARK1) was 100%. The remaining binding at 1 µM (CSNK1A1L) was 95%, the remaining binding at 1 µM (MARK4) was 100% and the remaining binding at 1 µM (CSNK1E) was 95%. It also gave a remaining binding at 1 µM (MEK1) of 95%, a remaining binding at 1 µM (MERTK) of 88% and a remaining binding at 1 µM (EGFR(G719C)) of 82%. The remaining binding at 1 µM (EGFR(T790M)) was 96%, the remaining binding at 1 µM (EPHA8) was 100% and the remaining binding at 1 µM (NEK7) was 92%. For the same molecule, the remaining binding at 1 µM (NEK9) was 88%, the remaining binding at 1 µM (EPHB2) was 95% and the remaining binding at 1 µM (EPHB4) was 93%. The remaining binding at 1 µM (EPHB6) was 92% and the remaining binding at 1 µM (PAK2) was 94%.
